The source of these data is publication PMC7116876, “Mechanistic Insights into Regulation of the ALC1 Remodeler by the Nucleosome Acidic Patch” (Cell reports, 2020).

Assay [1] relates to APM/APM nucleosomes (H2A E61A, E64A, D90A, E92A). Description: Fluorescence anisotropy binding assay, APM/APM nucleosomes. Also on record: species or system Xenopus laevis histones. As to conditions: 10 nM TAMRA-labeled peptide, 15 mM HEPES pH 7.5, 30°C, one representative curve of two independent experiments. The text has this: (§1) The DNA constructs used in the nucleosome assembly for single-molecule and ensemble remodeling studies comprised the Widom 601 nucleosome positioning sequence ([Lowary and Widom, 1998]) as well as either 3 bp or 12 bp of linker DNA on one side and 78 bp on the other side (for the single-molecule remodeling construct) or 63 bp of linker DNA on one side and no linker DNA on the other side (for the ensemble remodeling construct). All constructs were 5’-labeled with Cy5 on the short linker end. The constructs for single-molecule experiments additionally featured a biotin on the long linker end. […] The DNA constructs for the assembly of nucleosomes used in fluorescence anisotropy experiments and ATPase assays comprised the Widom 601 positioning sequence without additional linker DNA (for the fluorescence anisotropy construct) or 63 bp of linker DNA on one side and no linker DNA on the other side (for the ATPase assay construct). […]
For binding studies, we used nucleosomes without linker DNA (WT/WT or APM/APM) as well as the following synthetic peptides (as detailed above): LANA peptide-TAMRA, ALC1^RLS peptide-TAMRA, and ALC1^RLS peptide. Fluorescence anisotropy measurements were carried out at 30°C using a CLARIOstar microplate reader (BMG Labtech). Binding curves were recorded in black low-volume 384-well assay plates (Corning). […]
Background: Fluorescence polarisation rises when a labelled molecule tumbles more slowly, as on binding a larger partner.

Assay [2] has as its target T1, WT/WT nucleosomes (acidic patch) (Xenopus laevis, UniProt P02281+P06897+P62799).
T1 construct: made in house; host or cells: E. coli BL21 (DE3) pLysS
Description: Competition fluorescence anisotropy with LANA-TAMRA pre-bound to WT/WT nucleosomes. As to conditions: LANA-TAMRA 10 nM, WT/WT nucleosomes 100 nM, varying unlabeled ALC1^RLS peptide, 30°C; n = 3 independent experiments. Format: binding, Xenopus laevis histones. The procedure:
For binding studies, we used nucleosomes without linker DNA (WT/WT or APM/APM) as well as the following synthetic peptides (as detailed above): LANA peptide-TAMRA, ALC1^RLS peptide-TAMRA, and ALC1^RLS peptide. Fluorescence anisotropy measurements were carried out at 30°C using a CLARIOstar microplate reader (BMG Labtech). Binding curves were recorded in black low-volume 384-well assay plates (Corning). Individual wells contained 10 nM peptide and the indicated concentration of nucleosomes in 15 mM HEPES pH 7.5,1 mM EDTA, 5% glycerol, and 1 mM DTT. Dissociation constants were determined by fitting the fluorescence anisotropy data to the solution of a quadratic equation derived from the binding isotherm, which took into account depletion of peptide: r=αA+KD+B−A+KD+B^2−4AB , where r is the fluorescence anisotropy, A represents the total concentration of peptide, a is a scaling factor, KD is the dissociation constant, and B is the total concentration of titrated ligand. […]
For fluorescence anisotropy binding experiments, the reported values represent the mean ± SEM from 3 independent experiments. […] For ensemble nucleosome remodeling time courses, each experimental condition was recorded in 3 independent experiments, and representative remodeling time courses are shown. […]

The subject of assay [3] is ALC1-catalyzed remodeling of WT/WT nucleosomes. Nature of the assay: Ensemble FRET nucleosome remodeling, WT/WT nucleosomes. As to conditions: WT/WT nucleosomes 10 nM preincubated with 80 μM LANA peptide 5 min room temperature; 80 nM ALC1^fl R860W (Fig 1C) or 80 nM ALC1^fl activated with PARP1/NAD+ (Fig S1C). Format: biochemical, Homo sapiens ALC1; Xenopus laevis histones.
Source text: cDNAs for ALC1 and PARP1 were of Homo sapiens origin. Histone proteins (recombinantly expressed in E. coli) were of Xenopus laevis origin. Cell lines as well as growth conditions are described in the Method Details.
Oligonucleotides used in this study were ordered from IDT (see Table S3). The ALC1^fl (16-879) construct contains the human ALC1 sequence and a 6xHis-tag, as previously published ([Lehmann et al., 2017]). All point mutations were generated by PCR-based site-directed mutagenesis. The plasmid for human PARP1 (1-1014) with an N-terminal 6xHis-tag was a kind gift from John M. Pascal ([Langelier et al., 2017]).
as §1, with “construct).” for “construct). All constructs were 5’-labeled with Cy5 on the short linker end. The constructs for single-molecule experiments additionally featured a biotin on the long linker end.”

Take `CC[C@H](C)[C@H](NC(=O)[C@H](CC(C)C)NC(=O)[C@@H](NC(=O)[C@H](CO)NC(=O)CNC(=O)[C@H](CCCCN)NC(=O)[C@H](CC(N)=O)NC(=O)[C@H](CCCNC(=N)N)NC(=O)[C@H](CC(C)C)NC(=O)[C@H](CO)NC(=O)[C@H](CCCNC(=N)N)NC(=O)CNC(=O)[C@H](CCC(=O)O)NC(=O)[C@H](CCC(N)=O)NC(=O)[C@H](CO)NC(=O)[C@H](C)NC(=O)[C@H](CCCCN)NC(=O)[C@@H](N)CCC(=O)O)C(C)C)C(=O)N1CCC[C@H]1C(=O)NCC(=O)N[C@@H](CC(C)C)C(=O)N[C@@H](CCCCNC(=O)c1ccc2c(c1)C(=O)OC21c2ccc(N(C)C)cc2Oc2cc(N(C)C)ccc21)C(=O)O` [ALC1^RLS-TAMRA]: in assay [1], the “affinity for nucleosomes with AP mutations on both H2A/H2B dimers” value is “substantially reduced affinity”.
Consider “EKASQEGRSLRNKGSVLIPGL [ALC1^RLS peptide, N-terminal regulatory linker segment (residues 604–624) of ALC1, unlabeled]”, for which the “effect on fluorescence anisotropy of pre-formed LANA-TAMRA peptide-nucleosome complex” value in assay [2] is listed as “caused a decrease in its fluorescence anisotropy in a dose-dependent manner”.
In the case of “MAPPGMRLRSGRSTGAPLTRGS [LANA peptide, peptide derived from the latency-associated nuclear antigen (LANA) of Kaposi's sarcoma-associated herpesvirus, reference compound]”, the “effect on ALC1-catalyzed remodeling” value in assay [3] is listed as “completely abrogated ALC1-catalyzed remodeling”.
